In brackets after ≈: the same amount, converted by molar mass. Activity calls are given as the source filed them. The calls are words filed in the database; no cut-off is given here.
Tests used:
Pseudomonas aeruginosa [1] = assay: Antibacterial activity against Pseudomonas aeruginosa PAO1 assessed as inhibition of bacterial growth incubated for 18 hrs by agar dilution method; assay type: functional
Pseudomonas aeruginosa [2] = assay: Synergistic antibacterial activity against Pseudomonas aeruginosa 13-35 assessed as aztreonam MIC in CAMH broth medium supplemented with 0.41 to 0.51 mM Mg2+ by checkerboard assay; assay type: functional
Pseudomonas aeruginosa [3] = assay: Synergistic antibacterial activity against Pseudomonas aeruginosa 16-11 assessed as aztreonam MIC at 128 ug/ml incubated for 18 hrs by checkerboard method; assay type: functional; settings: dose 128 µg/ml
Pseudomonas aeruginosa [4] = assay: Synergistic antibacterial activity against Pseudomonas aeruginosa 13-3 assessed as aztreonam MIC at 128 ug/ml incubated for 18 hrs by checkerboard method; assay type: functional; settings: dose 128 µg/ml
Pseudomonas aeruginosa [5] = assay: Antibacterial activity against Pseudomonas aeruginosa PAO1 infected in Galleria mellonella assessed as larvae survival rate at 100 mg/kg measured after 96 hrs post inoculation in presence of 50 mg/kg aztreonam; assay type: functional
Pseudomonas aeruginosa [6] = assay: Synergistic antibacterial activity against Pseudomonas aeruginosa 19-55 assessed as aztreonam MIC at 128 ug/ml incubated for 18 hrs by checkerboard method; assay type: functional; settings: dose 128 µg/ml
Pseudomonas aeruginosa [7] = assay: Synergistic antibacterial activity against Pseudomonas aeruginosa 21-8 assessed as aztreonam MIC at 128 ug/ml incubated for 18 hrs by checkerboard method; assay type: functional; settings: dose 128 µg/ml
Pseudomonas aeruginosa [8] = assay: Antibacterial activity against Pseudomonas aeruginosa PAO1 at 128 ug/ml measured upto 24 hrs in presence of aztreonam by time-kill assay; assay type: functional, organism-based; settings: dose 128.0 µg/ml
Pseudomonas aeruginosa [9] = assay: Synergistic antibacterial activity against Pseudomonas aeruginosa 19-46 assessed as aztreonam MIC at 128 ug/ml incubated for 18 hrs by checkerboard method; assay type: functional; settings: dose 128 µg/ml
Pseudomonas aeruginosa [10] = assay: Inhibition of Pseudomonas aeruginosa 26 MexAB-OprM assessed as accumulation of Hoechst […] at 64 ug/ml; settings: dose 64.0 µg/ml
Pseudomonas aeruginosa [11] = assay: Synergistic antibacterial activity against Pseudomonas aeruginosa 21-7 assessed as aztreonam MIC at 128 ug/ml incubated for 18 hrs by checkerboard method; assay type: functional; settings: dose 128 µg/ml
Pseudomonas aeruginosa [12] = assay: Synergistic antibacterial activity against Pseudomonas aeruginosa PAO1 assessed as aztreonam MIC in CAMH broth medium supplemented with 20.99 to 21.09 mM Mg2+ by checkerboard assay; assay type: functional
Pseudomonas aeruginosa [13] = assay: Antibacterial activity against Pseudomonas aeruginosa 16-11 assessed as inhibition of bacterial growth incubated for 18 hrs by agar dilution method; assay type: functional
Pseudomonas aeruginosa [14] = assay: Synergistic antibacterial activity against Pseudomonas aeruginosa PAO1 assessed as aztreonam MIC at 128 ug/ml incubated for 18 hrs by checkerboard method; assay type: functional; settings: dose 128 µg/ml
Pseudomonas aeruginosa [15] = assay: Antibacterial activity against Pseudomonas aeruginosa 16-2 at 128 ug/ml measured upto 24 hrs by time-kill assay; assay type: functional, organism-based; settings: dose 128.0 µg/ml
Pseudomonas aeruginosa [16] = assay: Antibacterial activity against Pseudomonas aeruginosa 16-2 assessed as inhibition of bacterial growth incubated for 18 hrs by agar dilution method; assay type: functional
Pseudomonas aeruginosa [17] = assay: Synergistic antibacterial activity against Pseudomonas aeruginosa 23-Y372 assessed as aztreonam MIC at 128 ug/ml incubated for 18 hrs by checkerboard method; assay type: functional; settings: dose 128 µg/ml
Pseudomonas aeruginosa [18] = assay: Synergistic antibacterial activity against Pseudomonas aeruginosa 12-1 assessed as aztreonam MIC in CAMH broth medium supplemented with 0.41 to 0.51 mM Mg2+ by checkerboard assay; assay type: functional
Pseudomonas aeruginosa [19] = assay: Synergistic antibacterial activity against Pseudomonas aeruginosa 23-Y539 assessed as aztreonam MIC at 128 ug/ml incubated for 18 hrs by checkerboard method; assay type: functional; settings: dose 128 µg/ml
Pseudomonas aeruginosa [20] = assay: Synergistic antibacterial activity against Pseudomonas aeruginosa 23-Y511 assessed as aztreonam MIC at 128 ug/ml incubated for 18 hrs by checkerboard method; assay type: functional; settings: dose 128 µg/ml
Pseudomonas aeruginosa [21] = assay: Antibacterial activity against Pseudomonas aeruginosa 16-2 assessed as decrease in log10 CFU at 128 ug/ml measured after 24 hrs in presence of aztreonam by time-kill assay; assay type: functional; settings: dose 128 µg/ml
Pseudomonas aeruginosa [22] = assay: Antibacterial activity against Pseudomonas aeruginosa 13-17 assessed as inhibition of bacterial growth incubated for 18 hrs by agar dilution method; assay type: functional
Pseudomonas aeruginosa [23] = assay: Antibacterial activity against Pseudomonas aeruginosa 13-3 assessed as inhibition of bacterial growth incubated for 18 hrs by agar dilution method; assay type: functional
Pseudomonas aeruginosa [24] = assay: Synergistic antibacterial activity against Pseudomonas aeruginosa 12-1 assessed as aztreonam MIC in CAMH broth medium supplemented with 20.99 to 21.09 mM Mg2+ by checkerboard assay; assay type: functional
Pseudomonas aeruginosa [25] = assay: Synergistic antibacterial activity against Pseudomonas aeruginosa 16-11 assessed as aztreonam MIC in CAMH broth medium supplemented with 20.99 to 21.09 mM Mg2+ by checkerboard assay; assay type: functional
Pseudomonas aeruginosa [26] = assay: Synergistic antibacterial activity against Pseudomonas aeruginosa 13-35 assessed as aztreonam MIC in CAMH broth medium supplemented with 20.99 to 21.09 mM Mg2+ by checkerboard assay; assay type: functional
Pseudomonas aeruginosa [27] = assay: Synergistic antibacterial activity against Pseudomonas aeruginosa 16-2 assessed as aztreonam MIC at 128 ug/ml incubated for 18 hrs by checkerboard method; assay type: functional; settings: dose 128 µg/ml

NCCC[C@H](NC(=O)C[C@@H](N)Cc1ccccc1)C(=O)Nc1ccc2ccccc2c1
MIC (Pseudomonas aeruginosa [1]): 512 µg/mL (≈ 1220 µM)
MIC (Pseudomonas aeruginosa [2]): 4 µg/mL
MIC (Pseudomonas aeruginosa [3]): 2 µg/mL
MIC (Pseudomonas aeruginosa [4]): 8 µg/mL
Activity (Pseudomonas aeruginosa [5]): 80%
MIC (Pseudomonas aeruginosa [6]): 8 µg/mL
MIC (Pseudomonas aeruginosa [7]): 2 µg/mL
Activity (Pseudomonas aeruginosa [8]): Active
MIC (Pseudomonas aeruginosa [9]): 16 µg/mL
inhibition (Pseudomonas aeruginosa [10]): Active
MIC (Pseudomonas aeruginosa [11]): 64 µg/mL
MIC (Pseudomonas aeruginosa [12]): 8 µg/mL
MIC (Pseudomonas aeruginosa [13]): 512 µg/mL (≈ 1220 µM)
MIC (Pseudomonas aeruginosa [14]): 2 µg/mL
Activity (Pseudomonas aeruginosa [15]): inactive
MIC (Pseudomonas aeruginosa [16]): 513 µg/mL (≈ 1230 µM)
MIC (Pseudomonas aeruginosa [17]): 4 µg/mL
MIC (Pseudomonas aeruginosa [18]): 16 µg/mL
MIC (Pseudomonas aeruginosa [19]): 4 µg/mL
MIC (Pseudomonas aeruginosa [20]): 16 µg/mL
Activity (Pseudomonas aeruginosa [21]): >2 log10CFU/ml
MIC (Pseudomonas aeruginosa [22]): 512 µg/mL (≈ 1220 µM)
MIC (Pseudomonas aeruginosa [23]): 512 µg/mL (≈ 1220 µM)
MIC (Pseudomonas aeruginosa [24]): 64 µg/mL
MIC (Pseudomonas aeruginosa [25]): 8 µg/mL
MIC (Pseudomonas aeruginosa [26]): 32 µg/mL
MIC (Pseudomonas aeruginosa [27]): 16 µg/mL

Source: ChEMBL document CHEMBL5625252, “Synthesis of peptidomimetics as antibiotic adjuvants for combination with aztreonam to combat MDR Pseudomonas aeruginosa” (Eur J Med Chem, 2023)
